Key:
[1] = biological target: T1, MsCydDC (Mycolicibacterium smegmatis, UniProt A0QXA6+A4ZHS8); assay: ATPase activity assay; format: biochemical; details: Arg324 of CydC Linking-beta2 Loop sandwiches the adenosine ring at the CydC NBD
T1 construct: gene MSMEG3240; purified CydC-CydD heterodimer

[2] = biological target: T2, EcCydDC (Escherichia coli, UniProt P23886+P29018); assay: cryo-EM structure of the complex; format: binding; details: ATP-bound occluded state
T2 construct: gene cydC; purified CydC-CydD heterodimer

[3] = biological target: T1, MsCydDC; assay: ATPase activity assay; format: biochemical; details: Arg85 of CydD ICL1 stabilizes the adenosine ring at the CydD NBD
[4] = biological target: T1, MsCydDC; assay: cryo-EM structure of the complex; format: binding; details: Mg2+; ATP in the NBDs of CydC and CydD; outward-facing state
[5] = biological target: T1, MsCydDC; assay: ATPase activity assay; format: biochemical; details: Arg326 of CydC Linking-beta2 Loop sandwiches the adenosine ring at the CydC NBD
[6] = biological target: T3, Escherichia coli CydD (Escherichia coli, UniProt P29018 1-588); assay: cryo-EM structure; purified CydDC complexes; MsCydDC in apo and ATP-bound states, EcCydDC in heme-loading and ATP-bound states; details: both partners purified
T3 construct: CydD, subunit of the ABC transporter CydDC of Escherichia coli; also called EcCydD; source: purified as the EcCydDC complex
T3 sequence: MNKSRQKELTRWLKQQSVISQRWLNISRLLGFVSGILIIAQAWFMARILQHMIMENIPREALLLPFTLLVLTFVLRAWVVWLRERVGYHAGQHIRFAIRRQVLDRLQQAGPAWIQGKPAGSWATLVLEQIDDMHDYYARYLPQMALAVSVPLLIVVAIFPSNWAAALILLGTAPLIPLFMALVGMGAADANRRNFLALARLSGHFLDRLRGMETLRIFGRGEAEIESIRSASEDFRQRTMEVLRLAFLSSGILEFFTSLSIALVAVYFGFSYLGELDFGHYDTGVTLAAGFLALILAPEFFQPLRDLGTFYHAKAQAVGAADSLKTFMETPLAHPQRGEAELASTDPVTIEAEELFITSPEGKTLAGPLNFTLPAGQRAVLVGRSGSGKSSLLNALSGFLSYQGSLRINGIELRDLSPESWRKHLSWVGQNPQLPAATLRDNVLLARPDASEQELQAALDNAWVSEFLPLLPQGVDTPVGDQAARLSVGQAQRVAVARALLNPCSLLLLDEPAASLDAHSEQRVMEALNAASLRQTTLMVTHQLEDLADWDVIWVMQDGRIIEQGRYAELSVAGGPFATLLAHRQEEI

T1 sequence (A0QXA6 entry or part of it): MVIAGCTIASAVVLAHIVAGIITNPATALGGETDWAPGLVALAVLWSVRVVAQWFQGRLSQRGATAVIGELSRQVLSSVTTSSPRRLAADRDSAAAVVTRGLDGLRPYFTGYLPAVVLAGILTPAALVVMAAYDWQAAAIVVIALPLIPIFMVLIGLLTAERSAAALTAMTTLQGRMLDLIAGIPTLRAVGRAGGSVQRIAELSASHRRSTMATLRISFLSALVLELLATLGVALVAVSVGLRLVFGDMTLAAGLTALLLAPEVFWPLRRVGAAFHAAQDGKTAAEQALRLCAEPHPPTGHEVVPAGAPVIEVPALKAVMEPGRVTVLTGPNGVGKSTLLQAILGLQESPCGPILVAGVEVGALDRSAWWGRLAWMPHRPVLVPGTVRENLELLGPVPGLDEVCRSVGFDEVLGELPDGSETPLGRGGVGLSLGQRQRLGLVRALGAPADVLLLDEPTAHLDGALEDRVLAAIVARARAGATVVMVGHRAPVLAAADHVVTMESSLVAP
T1 sequence (A4ZHS8 entry or part of it): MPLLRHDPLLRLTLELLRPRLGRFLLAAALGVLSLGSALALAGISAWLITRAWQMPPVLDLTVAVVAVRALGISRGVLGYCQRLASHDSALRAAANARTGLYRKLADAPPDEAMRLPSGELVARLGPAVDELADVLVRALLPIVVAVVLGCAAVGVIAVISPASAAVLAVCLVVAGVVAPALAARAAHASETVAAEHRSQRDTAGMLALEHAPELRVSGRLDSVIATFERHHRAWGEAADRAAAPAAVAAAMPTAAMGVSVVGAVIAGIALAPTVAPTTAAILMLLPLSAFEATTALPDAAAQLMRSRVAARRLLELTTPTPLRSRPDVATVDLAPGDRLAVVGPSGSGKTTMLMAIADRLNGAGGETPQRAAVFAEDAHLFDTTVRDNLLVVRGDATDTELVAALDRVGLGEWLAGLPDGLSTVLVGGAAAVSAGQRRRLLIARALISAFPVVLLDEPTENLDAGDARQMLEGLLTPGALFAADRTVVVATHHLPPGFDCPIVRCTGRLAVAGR

In the case of `Nc1ncnc2c1ncn2[C@@H]1O[C@H](COP(=O)(O)OP(=O)(O)OP(=O)(O)O)[C@@H](O)[C@H]1O` [ATP], the ATPase activity [1] is reported as “a single mutation of any of these Arg residues significantly affected the ATPase activity”, the “cryo-EM structure of the complex” value [2] is reported as “We then determined the Cryo-EM structures of CydDC from Msm or E. coli” and the ATPase activity [3] is reported as “a single mutation of any of these Arg residues significantly affected the ATPase activity”. The “cryo-EM structure of the complex” value [4] was “the adenosine ring of ATP is stabilized by the sidechain of Arg85 from ICL1” and the ATPase activity [5] was “a single mutation of any of these Arg residues significantly affected the ATPase activity”.

B1: Escherichia coli CydC (natural protein)
chain: MRALLPYLALYKRHKWMLSLGIVLAIVTLLASIGLLTLSGWFLSASAVAGVAGLYSFNYMLPAAGVRGAAITRTAGRYFERLVSHDATFRVLQHLRIYTFSKLLPLSPAGLARYRQGELLNRVVADVDTLDHLYLRVISPLVGAFVVIMVVTIGLSFLDFTLAFTLGGIMLLTLFLMPPLFYRAGKSTGQNLTHLRGQYRQQLTAWLQGQAELTIFGASDRYRTQLENTEIQWLEAQRRQSELTALSQAIMLLIGALAVILMLWMASGGVGGNAQPGALIALFVFCALAAFEALAPVTGAFQHLGQVIASAVRISDLTDQKPEVTFPDTQTRVADRVSLTLRDVQFTYPEQSQQALKGISLQVNAGEHIAILGRTGCGKSTLLQQLTRAWDPQQGEILLNDSPIASLNEAALRQTISVVPQRVHLFSATLRDNLLLASPGSSDEALSEILRRVGLEKLLEDAGLNSWLGEGGRQLSGGELRRLAIARALLHDAPLVLLDEPTEGLDATTESQILELLAEMMREKTVLMVTHRLRGLSRFQQIIVMDNGQIIEQGTHAELLARQGRYYQFKQGL
notes: CydC, subunit of the ABC transporter CydDC of Escherichia coli; also called EcCydC; source: purified as the EcCydDC complex
B1: binds [6].

— paper PMC10691846 (Protein & Cell, 2023)
